In patent publication US11236102B2, “Oxabicycloheptane prodrugs” (Lixte Biotechnology, Inc., priority 2015, dated 2022):
Where “and” joins values, the source holds several entries; their conditions need not be identical. Equal values may be shown once. Read-outs that look alike come from different tables or passages of the source.

Tests used:
[1] = Pharmacokinetic study of 151 (iv, oral) in SD rats: 151 and 100 in plasma; type: in vivo; details: for AUC(0-t): read-out: AUC0-t of 151; for AUC(0-inf): read-out: AUC0-∞ of 151; for concentration at 0.5 h: 0.50 h
Experimental: The absolute bioavailability was evaluated.
To each sample, 160 μL of acetonitrile were added.
The mass spectrometer was operated in the positive mode.
Quantification was achieved by the external standard method.
Calibration Curve for Plasma Samples
LB100 concentrations of the LB151 plasma samples were also measured and pharmacokinetic parameters were calculated.

[2] = Whole blood stability (half-life) and metabolite formation; type: in vitro ADME, rat, dog, monkey and human; details: cross species
Experimental: The stability (whole blood, liver S9, SGF, SIF, and PBS buffer) and MDCK-MDR1 monolayer permeability of LB100, LB-100 Carbonate and LB-100 POM were evaluated.
Samples were analyzed by LC-MS/MS using a SCIEX QTrap 5500 mass spectrometer coupled with an Agilent 1290 HPLC Infinity series, a CTC PAL chilled autosampler, all controlled by Analyst software. After separation on a C18 reverse phase HPLC column (Acquity UPLC HSS T3, 1.8, 2.1×50 mm) using an acetonitrile-water gradient system, peaks were analyzed by mass spectrometry (MS) using […] ionization in MRM mode.
Whole Blood Stability: Experimental Conditions Experimental Procedure: The stock solution was first diluted in acetonitrile at a concentration that is 100× of the desired final concentration. It was incubated in duplicate with whole blood at 37° C. At indicated times, an aliquot was removed from each experimental and control reaction and mixed with three volumes of ice-cold Stop Solution (methanol containing propranolol as internal standard). Stopped reactions were incubated at least ten minutes at −20° C. The samples were centrifuged to remove precipitated protein, and the supernatants were analyzed by LC-MS/MS to quantitate the remaining parent and the formation of metabolites.
Data were converted to % remaining by dividing by the time zero concentration value. Data were fit to a first-order decay model to determine half-life.

[3] = male, Sprague-Dawley, rat, in vivo, iv, 1 mg/kg, plasma, 151 IV 1.0 mg/kg, SD rats, individual rats
[4] = male, Sprague-Dawley, rat, in vivo, iv, 1 mg/kg, plasma, 151 IV 1.0 mg/kg, SD rats, mean
[5] = male, Sprague-Dawley, rat, in vivo, po, 10 mg/kg, 151 PO 10 mg/kg, SD rats, individual rats
[6] = male, Sprague-Dawley, rat, in vivo, po, 10 mg/kg, 151 PO 10 mg/kg, SD rats, mean
[7] = male, Sprague-Dawley, rat, in vivo, po, 10 mg/kg, plasma, 151 PO 10 mg/kg, SD rats, individual rats
[8] = male, Sprague-Dawley, rat, in vivo, po, 10 mg/kg, plasma, 151 PO 10 mg/kg, SD rats, mean
[9] = plasma, 151 IV 1.0 mg/kg, SD rats, individual rats, 1 mg/kg
[10] = plasma, 151 PO 10 mg/kg, SD rats, individual rats, 10 mg/kg

## COC(=O)C1C2CCC(O2)C1C(=O)N1CCN(C)CC1 (centres unmarked) [Compound 151]
[1]; male, Sprague-Dawley, rat, in vivo, iv, 1 mg/kg, 151 iv 1.0 mg/kg (n=2), read-out: volume of distribution at steady state
  Vd: 0.736 L/kg
[1]; [3]
  MRT: 0.91 h
  AUC(0-t): 1290 ng·h/mL
  AUC(0-inf): 1310 ng·h/mL
[1]; male, Sprague-Dawley, rat, in vivo, iv, 1 mg/kg, plasma, 151 IV 1.0 mg/kg, SD rats, individual rats, read-out: T1/2 of 151 (converted)
  half-life: 0.91 h
[1]; [4]
  MRT: 0.86 h
  AUC(0-t): 1170 ng·h/mL
  AUC(0-inf): 1180 ng·h/mL
[1]; male, Sprague-Dawley, rat, in vivo, iv, 1 mg/kg, plasma, 151 IV 1.0 mg/kg, SD rats, mean, read-out: T1/2 of 151 (converted)
  half-life: 0.89 h
[1]; [5]
  concentration at 0.25 h: 2230 ng/mL
  concentration at 0.5 h: 2450 ng/mL
  concentration at 1 h: 2200 ng/mL
  concentration at 2 h: 1100 ng/mL
  concentration at 3 h: 521 ng/mL
  concentration at 5 h: 125 ng/mL
  concentration at 9 h: 52.1 ng/mL
[1]; [6]
  concentration at 0.25 h: 2330 ng/mL
  concentration at 0.5 h: 3240 ng/mL
  concentration at 1 h: 2440 ng/mL
  concentration at 2 h: 1310 ng/mL
  concentration at 3 h: 658 ng/mL
  concentration at 5 h: 139 ng/mL
  concentration at 9 h: 52.1 ng/mL
[1]; male, Sprague-Dawley, rat, in vivo, po, 10 mg/kg, 151 PO 10 mg/kg, SD rats, 7.0 h, mean
  concentration at 7 h: 43.8 ng/mL
[1]; male, Sprague-Dawley, rat, in vivo, po, 10 mg/kg, 151 oral 10 mg/kg, SD rats (n=3), read-out: mean half-life (converted)
  half-life: 1.26 h
[1]; [7]
  Cmax: 2450 ng/mL
  MRT: 1.86 h
  AUC(0-t): 5400 ng·h/mL
  AUC(0-inf): 5500 ng·h/mL
[1]; male, Sprague-Dawley, rat, in vivo, po, 10 mg/kg, plasma, 151 PO 10 mg/kg, SD rats, individual rats, read-out: T1/2 of 151 (converted)
  half-life: 1.33 h
[1]; [8]
  Cmax: 3240 ng/mL
  MRT: 1.81 h
  AUC(0-t): 6340 ng·h/mL
  AUC(0-inf): 6440 ng·h/mL
[1]; male, Sprague-Dawley, rat, in vivo, po, 10 mg/kg, plasma, 151 PO 10 mg/kg, SD rats, mean, read-out: T1/2 of 151 (converted)
  half-life: 1.26 h
[1]; male, Sprague-Dawley, rat, in vivo, 151 oral 10 mg/kg, based on AUC0-∞, read-out: absolute bioavailability (F)
  bioavailability: 54.6%
[1]; male, Sprague-Dawley, rat, in vivo, plasma, 151 PO 10 mg/kg, SD rats, mean
  Tmax: 0.5 h
[1]; [9]
  AUC0-t of 151: 1045 ng·h/mL
  AUC0-∞ of 151: 1047 ng·h/mL
  MRT of 151: 0.81 h
  T1/2 of 151: 0.87 h
[1]; [10]
  AUC0-t of 151: 6423 ng·h/mL and 7199 ng·h/mL
  AUC0-∞ of 151: 6484 ng·h/mL and 7328 ng·h/mL
  Cmax of 151: 3934 ng/mL and 3343 ng/mL
  MRT of 151: 1.62 h and 1.95 h
  T1/2 of 151: 1.10 h and 1.35 h
[2]
  metabolite formation in whole blood half-life study: No metabolites were detected
